Measurements from ChEMBL document CHEMBL1150429, “Synthesis and biological evaluation of D-amino acid oxidase inhibitors” (J Med Chem, 2008).
pIC50: −log10 of the molar value. Activity calls are given as the source filed them. The calls are words filed in the database; no cut-off is given here.

Test system: Rattus norvegicus
Assay: Increase in D-serine level in Sprague-Dawley rat prefrontal cortex at 30 mg/kg, po
Format: functional, organism-based
Parameters: dose 30 mg/kg

| Structure (SMILES) | Activity |
| --- | --- |
| Oc1noc2cc(Cl)ccc12 | inactive |

Test system: Rattus norvegicus
Assay: Increase in D-serine level in Sprague-Dawley rat plasma at 30 mg/kg, po coadministered with D-serine
Format: functional, organism-based
Parameters: dose 30 mg/kg

| Structure (SMILES) | Activity |
| --- | --- |
| Oc1noc2cc(Cl)ccc12 | Active |

Biological target: D-amino-acid oxidase (Sus scrofa, UniProt P00371)
Assay: Inhibition of pig D-amino acid oxidase

D-amino-acid oxidase, sequence (P00371 whole entry): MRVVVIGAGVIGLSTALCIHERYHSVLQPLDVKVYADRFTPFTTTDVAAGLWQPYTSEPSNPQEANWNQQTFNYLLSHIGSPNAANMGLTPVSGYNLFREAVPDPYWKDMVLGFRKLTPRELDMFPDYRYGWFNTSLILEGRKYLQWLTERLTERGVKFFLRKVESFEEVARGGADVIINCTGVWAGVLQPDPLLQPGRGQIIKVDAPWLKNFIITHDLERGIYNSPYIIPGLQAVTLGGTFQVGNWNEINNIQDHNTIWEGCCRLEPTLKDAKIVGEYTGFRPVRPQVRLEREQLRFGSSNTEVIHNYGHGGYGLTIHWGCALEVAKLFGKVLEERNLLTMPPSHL

| pIC50 | Structure (SMILES) |
| --- | --- |
| 5.11 | Oc1noc2cccc(F)c12 |
| 6.57 | Cc1ccc2c(O)noc2c1 |
| < 4.00 | O=c1[nH]oc2cccc(C(F)(F)F)c12 |
| 6.35 | Oc1noc2cc(F)ccc12 |
| 5.73 | Oc1noc2ccccc12 |
| 6.14 | O=[N+]([O-])c1ccc2c(O)noc2c1 |
| 5.30 | O=c1[nH]oc2cc(C(F)(F)F)ccc12 |
| < 4.00 | Cc1cccc2c(O)noc12 |
| < 4.00 | CCOc1ccc2c(O)noc2c1 |
| 6.73 | Oc1noc2cc(Cl)ccc12 |
| 4.64 | Oc1noc2c(F)cccc12 |
| < 4.00 | Oc1noc2c(F)c(C(F)(F)F)ccc12 |
| 5.82 | Oc1noc2ccc(I)cc12 |
| < 4.00 | COc1noc2cc(Cl)ccc12 |
| 5.53 | O=c1[nH]oc2ccc([N+](=O)[O-])cc12 |
| 6.22 | Oc1noc2ccc(Br)cc12 |
| 5.59 | COc1ccc2c(O)noc2c1 |

| Structure (SMILES) | pIC50 |
| --- | --- |
| NCc1cc(=O)[nH]o1 [MUSCIMOL] | < 4.00 |
| Cc1c(C[C@H](N)C(=O)O)o[nH]c1=O | < 4.00 |

Test system: Rattus norvegicus
Assay: Increase in D-serine level in Sprague-Dawley rat prefrontal cortex at 30 mg/kg, po coadministered with D-serine
Format: functional

| Structure (SMILES) | Activity |
| --- | --- |
| Oc1noc2cc(Cl)ccc12 | >60% |
